Measured values published in patent publication US20250297035A1, “A PEPTIDE AND THE SELECTION METHOD THEREOF” (THE HONG KONG UNIVERSITY OF SCIENCE AND TECHNOLOGY, priority 2021, published 2025).
Like-named read-outs stand apart in the source and are kept apart here. Where a SMILES comes first, the peptide text is derived from it. [ ]: non-standard residue; d: D form. The star is where a group is joined. Fmoc = O=C(OCC1c2ccccc2-c2ccccc21)*; 12Ado = NCCCCCCCCCCCC(=O)O; StBu = CC(C)(C)S*

Test: MTT assay, cytotoxicity of the peptide
Type: cell-based
Settings: read-out: cell viability
Excerpt: MTT assay was applied to evaluate the cytotoxicity effect of the peptide on HeLa, MCF-7, SK-N-MC, HEK293 and RAW264.7 cells (FIG. 12).

Measured: viability

CC(C)[C@H](NC(=O)[C@H](CCCCN)NC(=O)[C@H](CCCCN)NC(=O)[C@H](CCCCN)NC(=O)[C@H](CCCCN)NC(=O)[C@H](CCCCN)NC(=O)[C@@H]1CCCN1C(=O)OCC1c2ccccc2-c2ccccc21)C(=O)NCC(=O)N[C@@H](Cc1c[nH]cn1)C(=O)N[C@@H](Cc1c[nH]cn1)C(=O)N[C@@H](Cc1c[nH]cn1)C(=O)N[C@@H](Cc1c[nH]cn1)C(=O)NCCCCCCCCCCCC(=O)N[C@@H](CSSC(C)(C)C)C(=O)N[C@@H](Cc1c[nH]cn1)C(=O)N[C@@H](Cc1c[nH]cn1)C(=O)N[C@@H](CSSC(C)(C)C)C(=O)N[C@@H](CSSC(C)(C)C)C(=O)N[C@@H](Cc1c[nH]cn1)C(=O)N[C@@H](Cc1c[nH]cn1)C(=O)N[C@@H](CSSC(C)(C)C)C(=O)NCC(=O)N[C@@H](CO)C(=O)N1CCC[C@H]1C(=O)N[C@@H](Cc1c[nH]cn1)C(=O)N[C@@H](Cc1c[nH]cn1)C(=O)N[C@@H](CC(=O)O)C(=O)O [peptide_13, Fmoc-PKKKKKVG-HHHH (SEQ ID NO: 31)-C12-CstBuHHCstBuCstBuHHCstBuGSPHHD (SEQ ID NO: 39)] (Fmoc-PKKKKKVGHHHH[12Ado]C(StBu)HHC(StBu)C(StBu)HHC(StBu)GSPHHD-OH; C-terminus assumed)
> 80%: human, HEK293 cells, peptide concentration up to 4 μM | human, HeLa cells, peptide concentration up to 8 μM | human, MCF-7 cells, peptide concentration up to 8 μM | human, SK-N-MC cells, peptide concentration up to 4 μM | mouse, RAW264.7 cells, peptide concentration up to 4 μM
